Key:
CCKA = target: T1, CCKA (Cavia porcellus, UniProt Q63931); test: CCKA radioligand binding assay in guinea-pig pancreas membranes ([125I]-CCK8(S)); conditions: PD134,308 present, 150 minutes at 21±3°; for Ki: read-out: CCKA pKi (converted)
T1 construct: The pancreatata were homogenised in 40 ml ice-cold HEPES buffer using a polytron; from tissue; host or cells: pancreas membranes of male Dunkin Hartley guinea-pigs
T1 sequence (Q63931 1-430): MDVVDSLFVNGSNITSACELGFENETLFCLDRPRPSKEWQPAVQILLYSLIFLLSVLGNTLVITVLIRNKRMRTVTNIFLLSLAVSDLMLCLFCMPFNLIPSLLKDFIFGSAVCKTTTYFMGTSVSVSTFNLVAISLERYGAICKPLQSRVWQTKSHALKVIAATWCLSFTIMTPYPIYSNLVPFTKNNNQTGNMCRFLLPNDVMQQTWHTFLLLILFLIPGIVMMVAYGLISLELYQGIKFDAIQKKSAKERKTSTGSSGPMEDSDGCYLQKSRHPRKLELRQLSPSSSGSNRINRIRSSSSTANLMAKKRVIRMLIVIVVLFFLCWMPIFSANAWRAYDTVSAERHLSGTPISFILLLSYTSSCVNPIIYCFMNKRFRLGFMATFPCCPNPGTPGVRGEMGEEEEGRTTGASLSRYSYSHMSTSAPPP
How it was run: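 Competition for [125I]-CCK8(S) (added as […] solution) ran for 150 min at 21±3° in HEPES pH 7.2. Membranes came from male guinea-pig pancreas at 1 mg/ml original wet weight, with 0.375 μM PD134,308 in the suspension. Filter-bound counts were gamma-counted; 100 nM L-364,718 (added solution) defined non-specific binding.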

CCKB receptor = target: T2, CCKB receptor (Mus musculus, UniProt P56481); test: CCKB receptor radioligand binding assay in mouse cortical membranes ([125I]-CCK8S); conditions: [125I]-CCK8S 200 pM, 150 min at 21±3°; for Ki: read-out: CCKB pKi (converted)
T2 construct: The cortex was dissected, weighed and homogenised in 40ml ice-cold buffer; tissue Charles River (supplier of the CD1 mice); host or cells: cerebral cortex membranes of male CD1 mice
T2 sequence (P56481 1-453): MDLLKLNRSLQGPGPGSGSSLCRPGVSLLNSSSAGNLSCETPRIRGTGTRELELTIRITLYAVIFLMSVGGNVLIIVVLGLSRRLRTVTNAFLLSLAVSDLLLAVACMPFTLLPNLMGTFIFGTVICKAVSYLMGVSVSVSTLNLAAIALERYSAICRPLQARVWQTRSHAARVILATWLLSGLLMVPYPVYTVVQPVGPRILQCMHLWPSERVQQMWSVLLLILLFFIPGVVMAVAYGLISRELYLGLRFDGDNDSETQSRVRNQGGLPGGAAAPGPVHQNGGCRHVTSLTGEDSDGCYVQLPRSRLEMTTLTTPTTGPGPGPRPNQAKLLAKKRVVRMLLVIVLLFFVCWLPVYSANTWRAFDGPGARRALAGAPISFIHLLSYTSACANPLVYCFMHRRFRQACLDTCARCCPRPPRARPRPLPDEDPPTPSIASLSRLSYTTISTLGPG
How it was run: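 This was competition binding with tracer [125I]-CCK8S (200 pM solution added), run for 150 min at 21±3° on male CD1 mouse cortex membranes in pH 7.2 HEPES buffer with bacitracin. Filtration then gamma counting gave bound radioactivity. L-365,260 set the non-specific level.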

gastrin = target: T3, gastrin (Rattus norvegicus, UniProt P30553); test: gastrin antagonist activity in an immature rat stomach assay (pentagastrin-stimulated acid secretion); conditions: cumulative pentagastrin dose-response curves after 60 min with drug; for Kb: read-out: Gastrin pKB (converted)
T3 construct: The stomach was lowered into a jacketed organ bath containing 40 ml of buffered solution; from tissue; host or cells: isolated perfused whole stomach of immature rats (ca. 21 days old)
T3 sequence (P30553 1-452): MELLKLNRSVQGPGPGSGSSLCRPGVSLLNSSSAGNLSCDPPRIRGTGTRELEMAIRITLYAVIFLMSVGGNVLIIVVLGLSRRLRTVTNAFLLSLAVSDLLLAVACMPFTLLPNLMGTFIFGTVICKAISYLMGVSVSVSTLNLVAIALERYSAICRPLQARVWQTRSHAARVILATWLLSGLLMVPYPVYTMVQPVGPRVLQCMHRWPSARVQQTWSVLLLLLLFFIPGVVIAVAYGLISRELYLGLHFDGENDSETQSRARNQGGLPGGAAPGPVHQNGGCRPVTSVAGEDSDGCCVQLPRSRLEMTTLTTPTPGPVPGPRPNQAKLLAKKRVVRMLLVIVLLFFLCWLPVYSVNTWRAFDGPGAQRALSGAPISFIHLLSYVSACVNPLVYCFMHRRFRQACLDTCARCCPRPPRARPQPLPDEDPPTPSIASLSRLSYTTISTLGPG
How it was run: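 Isolated lumen-perfused immature rat stomach (33-50 g, ca. 21 days) in 37° organ bath with 3×10^-8 M 5-methylfurmethide; acid secretion read by pH electrode in perfusate. Compound added to serosal bath after 120 min stabilisation; cumulative pentagastrin dose-response curves begun 60 min later and analysed by the Black et al. method.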

## O=C(O)c1cc(NC(=O)[C@H](Cc2c[nH]cn2)NC(=O)c2cc3[nH]cnc3cc2C(=O)NCC23CC4CC(CC(C4)C2)C3)cc(C(=O)O)c1 [Example 69, 5-(1S-(3,5-dicarboxyphenylaminocarbonyl)-2-(2,4-imidazolyl)ethylaminocarbonyl)-6-(1-adamantanemethylaminocarbonyl)-benzimidazole]
CCKA
  Ki: 7.94 µM
CCKB receptor
  Ki: 0.316 µM
gastrin
  Kb: 0.0794 µM

## O=C(O)c1cc(NC(=O)[C@H](Cc2ccc(O)cc2)NC(=O)c2cc3[nH]cnc3cc2C(=O)NCC23CC4CC(CC(C4)C2)C3)cc(C(=O)O)c1 [Example 60, 5-(1S-(3,5-dicarboxyphenylaminocarbonyl)-2-(4-hydroxyphenyl)ethylaminocarbonyl)-6-(1-adamantanemethyaminocarbonyl)-benzimidazole]
CCKA
  Ki: 2.51 µM
CCKB receptor
  CCKB pKi: 7.8
gastrin
  Kb: 0.00794 µM

## CC(=O)Oc1cc(OC(C)=O)c2cc(C(=O)NCC34CC5CC(CC(C5)C3)C4)c(C(=O)N[C@@H](Cc3ccccc3)C(=O)Nc3cc(C(=O)O)cc(C(=O)O)c3)cc2c1 [Example 54, 2-(1S-(3,5-dicarboxyphenylaminocarbonyl)-2-phenylethylaminocarbonyl)-3-(1-adamantanemethylaminocarbonyl)-5,7-diacetoxy-naphthalene]
CCKA
  CCKA pKi: 5.9
CCKB receptor
  CCKB pKi: 8.1
gastrin
  Gastrin pKB: 8.1

## 5-(1S-(3,5-dicarboxyphenylaminocarbonyl)-2-phenylethylaminocarbonyl)-6-(cycloheptanemethylaminocarbonyl)-indole and regioisomer with substituents at positions 5 and 6 reversed [Example 42]
CCKA
  CCKA pKi: 5.5
CCKB receptor
  CCKB pKi: 7.8
gastrin
  Gastrin pKB: 9.3

## O=C(O)c1cc(NC(=O)[C@H](Cc2ccccc2)NC(=O)c2cc3cc[nH]c3cc2C(=O)NCC23CC4CC(CC(C4)C2)C3)cc(C(=O)O)c1 [Example 24, 5-(1S-(3,5-dicarboxyphenylaminocarbonyl)-2-phenylethylaminocarbonyl)-6-(1-adamantanemethylaminocarbonyl)-indole]
CCKA
  Ki: 2 µM
CCKB receptor
  Ki: 0.00126 µM
gastrin
  Kb: 0.000316 µM

## O=C(O)CNC(=O)[C@H]1CCCN1C(=O)c1cc2[nH]cnc2cc1C(=O)NCC12CC3CC(CC(C3)C1)C2 [Example 76, 5-(2R-carboxymethylaminocarbonylpyrrolidino-carbonyl)-6-(1-adamantanemethylaminocarbonyl)-benzimidazole]
CCKA
  Ki: > 10 µM
CCKB receptor
  Ki: 0.631 µM
gastrin
  Kb: 0.126 µM

## 5-(1S-(3,5-dicarboxyphenylaminocarbonyl)-2-phenylethylaminocarbonyl)-6-(1-adamantanemethyl-N-methylaminocarbonyl)-indole and regioisomer with substituents at positions 5 and 6 reversed [Example 41]
CCKA
  CCKA pKi: 5.7
CCKB receptor
  CCKB pKi: 7.8
gastrin
  Gastrin pKB: 7.8

## 5-(1S-(3,5-di-methylsulphonylaminophenylaminocarbonyl)-2-phenylethylaminocarbonyl)-6-(1-adamantanemethylaminocarbonyl)-indole [Example 92]
CCKA
  CCKA pKi: 4.9
CCKB receptor
  CCKB pKi: 6.5
gastrin
  Gastrin pKB: 6.8

## O=C(O)c1cc(NC(=O)[C@H](Cc2ccccc2)NC(=O)c2cc3ccccc3cc2C(=O)NCC23CC4CC(CC(C4)C2)C3)cc(C(=O)O)c1 [Example 15, 2-(1S-(3,5-dicarboxyphenylaminocarbonyl)-2-phenylethylaminocarbonyl)-3-(1-adamantanemethylaminocarbonyl)-naphthalene]
CCKA
  CCKA pKi: 6.1
CCKB receptor
  CCKB pKi: 7.9
gastrin
  Gastrin pKB: 8.2

## C[C@H](NC(=O)c1cc2[nH]cnc2cc1C(=O)NCC1CCCCCC1)C(=O)Nc1cc(C(=O)O)cc(C(=O)O)c1 [Example 72, 5-(1S-(3,5-dicarboxyphenylaminocarbonyl)-ethylaminocarbonyl)-6-(cycloheptanemethylaminocarbonyl)-benzimidazole]
CCKA
  CCKA pKi: 5.6
CCKB receptor
  CCKB pKi: 6.0
gastrin
  Gastrin pKB: 6.3

## Cn1ccc2cc(C(=O)NCC34CC5CC(CC(C5)C3)C4)c(C(=O)N[C@@H](Cc3ccccc3)C(=O)Nc3cc(C(=O)O)cc(C(=O)O)c3)cc21 [Example 37, 6-(1S-(3,5-dicarboxyphenylaminocarbonyl)-2-phenylethylaminocarbonyl)-5-(1-adamantanemethylaminocarbonyl)-N-methyl-indole]
CCKA
  Ki: 2.51 µM
CCKB receptor
  Ki: 0.00398 µM
gastrin
  Kb: 0.00398 µM

## 5-(1S-(trans 3,4-dicarboxypyrrolidinocarbonyl)-2-phenylethylaminocarbonyl)-6-(1-adamantanemethylaminocarbonyl)-indole and regioisomer with substituents at positions 5 and 6 reversed [Example 50]
CCKA
  CCKA pKi: 6.1
CCKB receptor
  CCKB pKi: 6.6
gastrin
  Gastrin pKB: 6.9

## Cc1ccc(C(=O)O)cc1NC(=O)[C@H](Cc1ccccc1)NC(=O)c1cc2[nH]cnc2cc1C(=O)NCC12CC3CC(CC(C3)C1)C2 [Example 82, 5-(1S-(2-methyl-5-carboxyphenylaminocarbonyl)-2-phenylethylaminocarbonyl)-6-(1-adamantanemethylaminocarbonyl)-benzimidazole]
CCKA
  Ki: 2 µM
CCKB receptor
  Ki: 0.1 µM
gastrin
  Kb: 0.126 µM

## 3-(1S-(3,5-dicarboxyphenylaminocarbonyl)-2-phenyl ethylaminocarbonyl)-2-(1-adamantanemethylaminocarbonyl)-5-aminonaphthalene [Example 116]
CCKA
  CCKA pKi: 5.6
CCKB receptor
  CCKB pKi: 8.5
gastrin
  Gastrin pKB: 9.0

## O=C(NCC12CC3CC(CC(C3)C1)C2)c1cc2nc[nH]c2cc1C(=O)N[C@@H](Cc1ccccc1)C(=O)Nc1cccc(-c2nn[nH]n2)c1 [Example 83, 5-(1S-(3-tetrazolylphenylaminocarbonyl)-2-phenylethylaminocarbonyl)-6-(1-adamantanemethylaminocarbonyl)-benzimidazole]
CCKA
  Ki: 0.398 µM
CCKB receptor
  Ki: 0.0158 µM
gastrin
  Kb: 0.0631 µM

## O=C(O)c1cc(NC(=O)[C@H](Cc2ccccc2F)NC(=O)c2cc3[nH]ccc3cc2C(=O)NCC23CC4CC(CC(C4)C2)C3)cc(C(=O)O)c1 [Example 88, 6-(1S-(3,5-dicarboxyphenylaminocarbonyl)-2-(2-25 fluorophenyl)ethylaminocarbonyl)-5-(1-adamantaneinetnyl-aminocarbonyl)-indole]
CCKA
  Ki: 2.51 µM
CCKB receptor
  Ki: 0.00501 µM
gastrin
  Kb: 0.00251 µM

## 5-(1S-(3-methoxycarbonyl-5-carboxy-phenylaminocarbonyl)-2-phenylethylaminocarbonyl)-6-(1-adamantanemethylaminocarbonyl)-indole and regioisomer with substituents at positions 5 and 6 reversed [Example 40]
CCKA
  CCKA pKi: 6.3
CCKB receptor
  CCKB pKi: 6.8
gastrin
  Gastrin pKB: 7.3
